# Assay results: US9956176B2, “Compositions and methods for treating ewing sarcoma” (priority 2014, dated 2018)
# d = 2'-deoxy (DNA); m = 2'-O-methyl
# Assays:
# [1] = tested on: human Acute Lymphoblastic Leukemia (REH cells); test: REH-Luc leukemia xenograft, tumor burden by Xenogen camera; assay type: in vivo, mouse
# Excerpt: (§1) To complete the mouse efficacy and safety studies we injected NOG mice with 6×10^6 luciferase transfected human Acute Lymphoblastic Leukemia (REH cells). This special transgenic type of mouse has deletions in the gene encoding the interleukin 2 receptor γ (IL2Rγ) and has added genes expressing human iL3, GM-CSF and SCF. To prevent rejection of injected human leukemia cells, the NOG mice have a complete lack of B, T, and NK cells, and a deficiency of cytokine signaling. The mice were separated into six groups. Group 1 received only buffer treatment; group 2-untargeted, unloaded HPLN; group 3-untargeted, HPLN/Dox (2 mg Dox/kg); group 4-(targeted) anti-CD-19/HPLN/Dox (2 mg Dox/kg); group 5-Doxil (2 mg Dox/kg); and group 6-(free) doxorubicin (2 mg Dox/kg).
# (§2) Upon injection of the leukemia cells, Xenogen camera images were done once per week and used to assess both tumor cell distribution and quantitative tumor burden. After 10 days post leukemia cell injection, our targeted nanoparticle drug (anti-CD-19/HPLN/Dox) or control particles or drugs, were administered to the mice, in once a week dosages. The amount of drug given was based on the active substance (doxorubicin), not on total nanoparticle mass in each formulation (except for group 2, these mice received an equivalent HPLN dose in unloaded form). […]
# [2] = assay type: in vivo; settings: once a week IV
# Excerpt: as §1, §2
# [3] = molecular target: T1, RNA polymerase II (Homo sapiens, UniProt P24928); test: inhibition of FEZF1-AS1 transcription; assay type: cell-based
# T1 construct: endogenous in cells; host or cells: Ewing sarcoma cells
# Excerpt: FEZF1-AS1 is located on human chromosome 7q31.32 on the positive strand and overlaps the first two exons of protein-coding gene, FEZF1, which lies on the opposite strand. To characterize this gene in Ewing sarcoma, we performed Northern blot analysis using different biotin-labelled probes that confirmed the 2.6 kb transcript was predominantly expressed in Ewing sarcoma. […] RNA-sequencing of two Ewing sarcoma cell lines, CHLA-9 and CHLA-10, identified multiple isoforms of the transcript, some of which included introns and/or extended beyond exon 7. CHLA-9 and CHLA-10 are Ewing sarcoma cell lines from the same patient. CHLA-9 is from the primary tumor and CHLA-10 is from the metastatic tumor. We validated some of the isoforms by PCR and Sanger sequencing. To confirm the annotation of FEZF1-AS1 as a non-coding RNA, we used the coding potential calculator algorithm that assigned a low score of −1.2 compared to scores of 5 and above for coding genes such as FLI1, and NR0B1. FEZF1-AS1 transcription was inhibited by alpha-amanitin but not by RNA Polymerase III inhibitor, thus confirming that RNA polymerase II transcribes the lncRNA. […] Thus, lncRNA FEZF1-AS1 is a highly expressed gene is Ewing sarcoma.
# [4] = tested on: FEZF1-AS1; test: FEZF1-AS1 expression in A673 cells; assay type: cell-based, human
compound,measurement,setting,value
COc1cccc2c1C(=O)c1c(O)c3c(c(O)c1C2=O)C[C@@](O)(C(=O)CO)C[C@@H]3O[C@H]1C[C@H](N)[C@H](O)[C@H](C)O1 [doxorubicin],tumor growth / tumor reduction,"[1]; 2 mg Dox/kg once a week from day 10, IV, FIG. 4",significant tumor reduction
same,tumor size and burden,"[1]; 2 mg Dox/kg, day 35, FIG. 8",markedly less
same,"tolerability, acute toxic reactions",[2],lose weight and appeared sickly
alpha-amanitin,FEZF1-AS1 transcription,[3],inhibited
"5-mG*mU*mG*mU*mG*T*G*T*G*T*C*T*G*C*T*mU*mG*mU*mU*mU-3′ (antisense GUGUGTGTGTCTGCTUGUUU; sugars from the 5' end m5 d10 m5, all phosphorothioate, methylation of C not given here) [FA7]",knockdown levels,"[4]; A673, 48 hours",about 50%
same,FEZF1-AS1 levels reduced to,"[4]; A673, nucleofection, 24 hours",80%
